Target: T1, KRAS G12C (GMPPNP-loaded, Cys-light, amino acids 1-169) and cRAF Ras-binding domain interaction (Homo sapiens, UniProt P01116, C118S/C51S/C80L/G12C)
T1 construct: truncated version comprising amino acids 1-169
Assay: Inhibition of KRAS G12C and cRAF binding (AlphaScreen)
Details: KRAS G12C preloaded with GMPPNP, 2 hours compound incubation, room temperature
Experimental: The AlphaScreen technology was used to determine IC50s for compound inhibition of KRAS G12C (present as the Cys-light (C51S, C80L and C118S), truncated version comprising amino acids 1-169) and cRAF interaction. Compounds were diluted in 100% DMSO and each compound concentration was spotted at 200 nl/well onto low volume, white 384 well plates. The KRAS G12C contained a biotin-AviTag and the cRaf, as Ras-binding domain (amino acids 50-131, RBD), was GST-tagged. KRAS G12C was preloaded with the GTP analogue Guanosine 5′-[…] (GMPPNP). The KRAS G12C was diluted in 25 mM Hepes, pH 7.4, 150 mM NaCl, 5 mM MgCl2, 0.01% TritonX-100 and 10 μM GMPPNP and added at 10 ul/well to compound-spotted plates resulting in a DMSO concentration of 2%. Plates were incubated for 2 hours. A mixture of RBD and the AlphaScreen streptavidin donor and glutathione acceptor beads diluted in 25 mM Hepes, pH 7.4, 150 mM NaCl, 5 mM MgCl2, 0.01% TritonX-100 and 2% DMSO was then added at 10 ul/well and incubated for 60-90 minutes before the samples were read for emission at 570 nm after excitation of the donor beads at 680 nm. All incubations were performed at room temperature. The final top compound concentration was 50 μM with 1:3 titrations for 10-point dose response curves. Final assay conditions were 0.5 nM KRAS G12C, 0.75 nM RBD and 5 μg/ml each of AlphaScreen donor and acceptor beads. IC50s were determined using nonlinear regression fit of [inhibitor] vs. response (4 parameters).
A counter assay was also set up to rule out inhibitors of the AlphaScreen technology itself. Compound plates were incubated for 2 hours as above with buffer only. The AlphaScreen beads were added as above except biotin-AviTag-GST was substituted for the RBD. Samples were read and analyzed as above.

T1 sequence (P01116 1-169 isoform P01116-2 G12C/C51S/C80L/C118S): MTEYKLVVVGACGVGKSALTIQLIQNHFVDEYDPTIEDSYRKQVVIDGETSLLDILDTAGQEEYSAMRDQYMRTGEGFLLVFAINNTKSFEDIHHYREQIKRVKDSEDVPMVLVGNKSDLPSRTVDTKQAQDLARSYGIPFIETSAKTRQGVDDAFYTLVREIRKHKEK

IC50 [nM] | Structure (SMILES)
< 10 | Cc1cc(/C=C(\F)C(=O)N2CCN(c3nc(OC[C@@]45CCCN4C[C@H](F)C5)nc4c(F)c(-c5cccc6ccc(F)c(C)c56)ncc34)C[C@@H]2CC#N)nc(C)n1 [Compound 34]
< 10 | Cc1cc(/C=C(\F)C(=O)N2CCN(c3nc(OC[C@@]45CCCN4C[C@H](F)C5)nc4c(F)c(-c5cccc6ccc(F)c(Cl)c56)ncc34)C[C@@H]2CC#N)nc(C)n1 [Compound 35]
100 to 500 | Cc1nccc(/C=C(\F)C(=O)N2CC[C@H](O)[C@@H](N(C)c3nc(OC[C@@]45CCCN4C[C@H](F)C5)nc4c(F)c(-c5cccc6cccc(Cl)c56)ncc34)C2)n1 [Compound 36]
< 10 | Cc1nccc(/C=C(\F)C(=O)N2CC[C@@H](N(C)c3nc(OC[C@@]45CCCN4C[C@H](F)C5)nc4c(F)c(-c5cccc6cccc(Cl)c56)ncc34)C2)n1 [Compound 37, (Z)-1-((R)-3-((7-(8-chloronaphthalen-1-yl)-8-fluoro-2-(((2R,7aS)-2-fluorotetrahydro-1H-pyrrolizin-7a(5H)-yl)methoxy)pyrido[4,3-d]pyrimidin-4-yl)(methyl)amino)pyrrolidin-1-yl)-2-fluoro-3-(2-methylpyrimidin-4-yl)prop-2-en-1-one]
< 10 | Cc1nccc(/C=C(\F)C(=O)N2CC[C@@H](N(C)c3nc(OC[C@@]45CCCN4C[C@H](F)C5)nc4c(F)c(-c5cccc6ccc(F)c(F)c56)ncc34)C2)n1 [Compound 38]
< 10 | Cc1nccc(/C=C(\F)C(=O)N2CC[C@@H](N(C)c3nc(OC[C@@]45CCCN4C[C@H](F)C5)nc4c(F)c(-c5cccc(Cl)c5C5CC5)ncc34)C2)n1 [Compound 39]
< 10 | Cc1nccc(/C=C(\F)C(=O)N2CC(CN(C)c3nc(OC[C@@]45CCCN4C[C@H](F)C5)nc4c(F)c(-c5cccc6cccc(Cl)c56)ncc34)C2)n1 [Compound 40]
< 10 | Cc1cc(/C=C(\F)C(=O)N2CC[C@@H](N(C)c3nc(OC[C@@]45CCCN4C[C@H](F)C5)nc4c(F)c(-c5cccc6ccc(F)c(F)c56)ncc34)C2)nc(C)n1 [Compound 41, (Z)-1-((R)-3-((7-(7,8-difluoronaphthalen-1-yl)-8-fluoro-2-(((2R,7aS)-2-fluorotetrahydro-1H-pyrrolizin-7a(5H)-yl)methoxy)pyrido[4,3-d]pyrimidin-4-yl)(methyl)amino)pyrrolidin-1-yl)-3-(2,6-dimethylpyrimidin-4-yl)-2-fluoroprop-2-en-1-one]
< 10 | C#Cc1c(F)ccc2cccc(-c3ncc4c(N(C)[C@@H]5CCN(C(=O)/C(F)=C/c6ccnc(C)n6)C5)nc(OC[C@@]56CCCN5C[C@H](F)C6)nc4c3F)c12 [Compound 42]
< 10 | Cc1nccc(/C=C(\F)C(=O)N2CC[C@@H](N(C)c3nc(OC[C@@]45CCCN4C[C@H](F)C5)nc4c(F)c(-c5cccc(Cl)c5C(F)(F)F)ncc34)C2)n1 [Compound 43]
< 10 | C#Cc1c(F)ccc2cccc(-c3ncc4c(N(C)[C@@H]5CCN(C(=O)/C(F)=C/c6cc(C)nc(C)n6)C5)nc(OC[C@@]56CCCN5C[C@H](F)C6)nc4c3F)c12 [Compound 44, (Z)-3-(2,6-dimethylpyrimidin-4-yl)-1-((R)-3-((7-(8-ethynyl-7-fluoronaphthalen-1-yl)-8-fluoro-2-(((2R,7aS)-2-fluorotetrahydro-1H-pyrrolizin-7a(5H)-yl)methoxy)pyrido[4,3-d]pyrimidin-4-yl)(methyl)amino)pyrrolidin-1-yl)-2-fluoroprop-2-en-1-one]
< 10 | CCc1c(F)ccc2cccc(-c3ncc4c(N(C)[C@@H]5CCN(C(=O)/C(F)=C/c6ccnc(C)n6)C5)nc(OC[C@@]56CCCN5C[C@H](F)C6)nc4c3F)c12 [Compound 45]
< 10 | Cc1cc(/C=C(\F)C(=O)N2CC[C@@H](N(C)c3nc(OC[C@@]45CCCN4C[C@H](F)C5)nc4c(F)c(-c5cccc(Cl)c5C5CC5)ncc34)C2)nc(C)n1 [Compound 46, (Z)-1-((R)-3-((7-(3-chloro-2-cyclopropylphenyl)-8-fluoro-2-(((2R,7aS)-2-fluorotetrahydro-1H-pyrrolizin-7a(5H)-yl)methoxy)pyrido[4,3-d]pyrimidin-4-yl)(methyl)amino)pyrrolidin-1-yl)-3-(2,6-dimethylpyrimidin-4-yl)-2-fluoroprop-2-en-1-one]
< 10 | Cc1cc(/C=C(\F)C(=O)N2CC[C@@H](N(C)c3nc(OC[C@@]45CCCN4C[C@H](F)C5)nc4c(F)c(-c5cccc(Cl)c5C(F)(F)F)ncc34)C2)nc(C)n1 [Compound 47]
≥ 500 | COc1nc(N(C)[C@@H]2CCN(C(=O)/C(F)=C/c3cc(C)nc(C)n3)C2)c2cnc(-c3cccc4ccc(F)c(F)c34)c(F)c2n1 [Compound 48]
100 to 500 | C#Cc1c(F)ccc2cccc(-c3ncc4c(N5CCN(C(=O)/C(F)=C/c6cc(C)nc(C)n6)[C@@H](CC#N)C5)nc(OC)nc4c3F)c12 [Compound 49, (S,Z)-2-(1-(3-(2,6-dimethylpyrimidin-4-yl)-2-fluoroacryloyl)-4-(7-(8-ethynyl-7-fluoronaphthalen-1-yl)-8-fluoro-2-methoxypyrido[4,3-d]pyrimidin-4-yl)piperazin-2-yl)acetonitrile]
10 to 100 | Cc1cc(/C=C(\F)C(=O)N2CC[C@@H](N(C)c3nc(OC[C@@H]4CCCN4C)nc4c(F)c(-c5cccc(Cl)c5C5CC5)ncc34)C2)nc(C)n1 [Compound 50]
100 to 500 | Cc1cc(/C=C(\F)C(=O)N2CC[C@@H](N(C)c3nc(N4CC(N(C)C)C4)nc4c(F)c(-c5cccc(Cl)c5C5CC5)ncc34)C2)nc(C)n1 [Compound 51]
< 10 | Cc1cc(/C=C(\F)C(=O)N2CC[C@@H](N(C)c3nc(OC[C@@H]4CCCN4C)nc4c(F)c(-c5cccc6ccc(F)c(F)c56)ncc34)C2)nc(C)n1 [Compound 52]
10 to 100 | Cc1cc(/C=C(\F)C(=O)N2CC[C@@H](N(C)c3nc(N4CC(N(C)C)C4)nc4c(F)c(-c5cccc6ccc(F)c(F)c56)ncc34)C2)nc(C)n1 [Compound 53]
≥ 500 | COc1nc(N2CCN(C(=O)/C(F)=C/c3cc(C)nc(C)n3)[C@@H](CC#N)C2)c2cnc(-c3cccc4ccc(F)c(Cl)c34)c(F)c2n1 [Compound 54, (S,Z)-2-(4-(7-(8-chloro-7-fluoronaphthalen-1-yl)-8-fluoro-2-methoxypyrido[4,3-d]pyrimidin-4-yl)-1-(3-(2,6-dimethylpyrimidin-4-yl)-2-fluoroacryloyl)piperazin-2-yl)acetonitrile]
< 10 | COc1nc(N2CCN(C(=O)/C(F)=C/c3cc(C)nc(C)n3)[C@@H](CC#N)C2)c2cnc(-c3cc(O)cc(Cl)c3C3CC3)c(F)c2n1 [Compound 55, (S,Z)-2-(4-(7-(3-chloro-2-cyclopropyl-5-hydroxyphenyl)-8-fluoro-2-methoxypyrido[4,3-d]pyrimidin-4-yl)-1-(3-(2,6-dimethylpyrimidin-4-yl)-2-fluoroacryloyl)piperazin-2-yl)acetonitrile]
100 to 500 | COc1nc(N(C)[C@@H]2CCN(C(=O)/C(F)=C/c3cc(C)nc(C)n3)C2)c2cnc(-c3cc(O)cc(Cl)c3C3CC3)c(F)c2n1 [Compound 56, (R,Z)-1-(3-((7-(3-chloro-2-cyclopropyl-5-hydroxyphenyl)-8-fluoro-2-methoxypyrido[4,3-d]pyrimidin-4-yl)(methyl)amino)pyrrolidin-1-yl)-3-(2,6-dimethylpyrimidin-4-yl)-2-fluoroprop-2-en-1-one]
< 10 | Cc1cc(/C=C(\F)C(=O)N2CCN(c3nc(C)nc4c(F)c(-c5cc(O)cc(Cl)c5C5CC5)ncc34)C[C@@H]2CC#N)nc(C)n1 [Compound 57]
< 10 | Cc1cc(/C=C(\F)C(=O)N2CCN(c3ncnc4c(F)c(-c5cc(O)cc(Cl)c5C5CC5)ncc34)C[C@@H]2CC#N)nc(C)n1 [Compound 58]
